Patent US4436733A, “4"- And 3-ester derivatives of DMT and DMOT” (Eli Lilly and Company, priority 1982, dated 1984)
Like-named read-outs stand apart in the source and are kept apart here.

What was measured:
[1] = system: Streptococcus Group 9960; assay: standard agar-dilution assay, MIC; format: cell-based
Protocol: (§1) The MIC's in Table III were determined by standard agar-dilutionassays. The MIC's in Table IV were obtained using a conventional broth-dilution microtiter test.

[2] = system: Staphylococcus aureus X1.1; assay: standard agar-dilution assay, MIC; format: cell-based
Protocol: as §1

[3] = system: Streptococcus Group D X66; assay: standard agar-dilution assay, MIC; format: cell-based
Protocol: as §1

[4] = system: Staphylococcus aureus S13E; assay: standard agar-dilution assay, MIC; format: cell-based
Protocol: as §1

[5] = system: Staphylococcus epidermidis EPI1; assay: standard agar-dilution assay, MIC; format: cell-based
Protocol: as §1

[6] = system: Streptococcus pneumoniae Park I; assay: standard agar-dilution assay, MIC; format: cell-based
Protocol: as §1

[7] = system: Staphylococcus epidermidis EPI2; assay: standard agar-dilution assay, MIC; format: cell-based
Protocol: as §1

[8] = system: Streptococcus pyogenes C203; assay: standard agar-dilution assay, MIC; format: cell-based
Protocol: as §1

[9] = system: Staphylococcus aureus V41; assay: standard agar-dilution assay, MIC; format: cell-based; settings: Staphylococcus aureus V41, penicillin resistant strain
Protocol: as §1
^b Penicillinresistant strain

[10] = system: Staphylococcus aureus X400; assay: standard agar-dilution assay, MIC; format: cell-based; settings: Staphylococcus aureus X400, methicillin resistant strain
Protocol: as §1
^c Methicillinresistant-strain

[11] = system: Staphylococcus aureus; assay: conventional broth-dilution microtiter test, MIC; format: cell-based
Protocol: as §1

[12] = system: Streptococcus sp. 80; assay: conventional broth-dilution microtiter test, MIC; format: cell-based
Protocol: as §1

[13] = system: Pasteurella multocida 60A; assay: conventional broth-dilution microtiter test, MIC; format: cell-based; settings: avian isolate
Protocol: as §1

[14] = system: Mycoplasma gallisepticum; assay: conventional broth-dilution microtiter test, MIC; format: cell-based
Protocol: as §1

[15] = system: Mycoplasma synoviae; assay: conventional broth-dilution microtiter test, MIC; format: cell-based
Protocol: as §1

[16] = system: Pasteurella multocida 17E; assay: conventional broth-dilution microtiter test, MIC; format: cell-based; settings: bovine isolate
Protocol: as §1

[17] = system: Mycoplasma hyorhinis; assay: conventional broth-dilution microtiter test, MIC; format: cell-based
Protocol: as §1

[18] = system: Streptococcus pyogenes C203; assay: experimental bacterial infection in mice, ED50; format: in vivo; settings: read-out: ED50 (effective dose to protect 50% of the test animals)
Protocol: The ester derivatives of this invention have shown in vivo antimicrobial activity against experimental bacterial infections caused by gram-positivebacteria. When two doses of test compound were administered to mice with experimental infections, the activity observed was measured as an ED50 value [effective dose in mg/kg to protect 50% of the test animals: see Warren Wick, et al., J. Bacteriol. 81, 233-235 (1961)].
^a mg/kg × 2; doses given 1 and 5 hours postinfection

[19] = C203, mice, oral, doses given 1 and 5 hours postinfection
[20] = C203, sc, mice, subcutaneous, doses given 1 and 5 hours postinfection

SMILES: CCC1OC(=O)CC(OC(=O)COc2ccccc2)C(C)C(OC2OC(C)C(OC3CC(C)(O)C(O)C(C)O3)C(N(C)C)C2OC(C)=O)C(CC=O)CC(C)C(=O)C=CC(C)=CC1COC(=O)COc1ccccc1 (stereo not shown) [Compound 8, 2'-O-Acetyl-3,23-Di-O-Phenoxyacetyl-DMT]
- MIC (minimal inhibitory concentration) [1]: 0.25
- MIC (minimal inhibitory concentration) [2]: 0.5
- MIC (minimal inhibitory concentration) [3]: 0.5
- MIC (minimal inhibitory concentration) [4]: 0.5
- MIC (minimal inhibitory concentration) [5]: 1
- MIC (minimal inhibitory concentration) [6]: 0.125
- MIC (minimal inhibitory concentration) [7]: 1
- MIC (minimal inhibitory concentration) [8]: 0.125
- MIC (minimal inhibitory concentration) [9]: 1
- MIC (minimal inhibitory concentration) [10]: 1

SMILES: CCC(=O)OC1C(C)OC(OC2C(C)OC(OC3C(CC=O)CC(C)C(=O)C=CC(C)=CC(C)C(CC)OC(=O)CC(O)C3C)C(OC(C)=O)C2N(C)C)CC1(C)O (stereo not shown) [Compound 22, 2'-O-Acetyl-4"-O-Propionyl-DMOT]
- MIC (minimal inhibitory concentration) [1]: 0.5
- MIC (minimal inhibitory concentration) [2]: 0.25
- MIC (minimal inhibitory concentration) [3]: 0.5
- MIC (minimal inhibitory concentration) [4]: 0.5
- MIC (minimal inhibitory concentration) [5]: 0.5
- MIC (minimal inhibitory concentration) [6]: 0.125
- MIC (minimal inhibitory concentration) [7]: 1
- MIC (minimal inhibitory concentration) [8]: 0.25
- MIC (minimal inhibitory concentration) [9]: 0.5
- MIC (minimal inhibitory concentration) [10]: 0.5
- MIC (minimal inhibitory concentration) [11]: 3.12
- MIC (minimal inhibitory concentration) [12]: 1.56
- MIC (minimal inhibitory concentration) [13]: 25
- MIC (minimal inhibitory concentration) [14]: 0.195
- MIC (minimal inhibitory concentration) [15]: 0.78
- MIC (minimal inhibitory concentration) [16]: 25
- MIC (minimal inhibitory concentration) [17]: 1.56
- ED50 [18, 19]: 91 mg/kg
- ED50 [18, 20]: > 30 mg/kg

SMILES: CCC1OC(=O)CC(O)C(C)C(OC2OC(C)C(OC3CC(C)(O)C(OC(=O)Cc4ccccc4)C(C)O3)C(N(C)C)C2OC(C)=O)C(CC=O)CC(C)C(=O)C=CC(C)=CC1COC(=O)Cc1ccccc1 (stereo not shown) [Compound 5, 2'-O-Acetyl-23,4"-Di-O-Phenylacetyl-DMT]
- MIC (minimal inhibitory concentration) [1]: 2
- MIC (minimal inhibitory concentration) [2]: 1
- MIC (minimal inhibitory concentration) [3]: 2
- MIC (minimal inhibitory concentration) [4]: 1
- MIC (minimal inhibitory concentration) [5]: 1
- MIC (minimal inhibitory concentration) [7]: 2
- MIC (minimal inhibitory concentration) [9]: 1
- MIC (minimal inhibitory concentration) [10]: 2
- MIC (minimal inhibitory concentration) [11]: 50
- MIC (minimal inhibitory concentration) [12]: 1.56
- MIC (minimal inhibitory concentration) [13]: > 50
- MIC (minimal inhibitory concentration) [14]: 1.56
- MIC (minimal inhibitory concentration) [15]: 12.5
- MIC (minimal inhibitory concentration) [16]: > 50
- MIC (minimal inhibitory concentration) [17]: 6.25
- ED50 ([18]; C203, po): > 144 mg/kg

SMILES: CCC(=O)OCC1C=C(C)C=CC(=O)C(C)CC(CC=O)C(OC2OC(C)C(OC3CC(C)(O)C(OC(=O)CC)C(C)O3)C(N(C)C)C2O)C(C)C(O)CC(=O)OC1CC (stereo not shown) [Compound 4, 23,4"-Di-O-Propionyl-DMT]
- MIC (minimal inhibitory concentration) [1]: 0.5
- MIC (minimal inhibitory concentration) [2]: 0.5
- MIC (minimal inhibitory concentration) [3]: 1
- MIC (minimal inhibitory concentration) [4]: 0.5
- MIC (minimal inhibitory concentration) [5]: 0.5
- MIC (minimal inhibitory concentration) [6]: 0.06
- MIC (minimal inhibitory concentration) [7]: 1
- MIC (minimal inhibitory concentration) [8]: 0.25
- MIC (minimal inhibitory concentration) [9]: 1
- MIC (minimal inhibitory concentration) [10]: 1
- MIC (minimal inhibitory concentration) [11]: 0.78
- MIC (minimal inhibitory concentration) [12]: 1.56
- MIC (minimal inhibitory concentration) [13]: 25
- MIC (minimal inhibitory concentration) [14]: 0.195
- MIC (minimal inhibitory concentration) [15]: 0.39
- MIC (minimal inhibitory concentration) [16]: 12.5
- MIC (minimal inhibitory concentration) [17]: 0.78
- ED50 [18, 19]: > 150 mg/kg
- ED50 [18, 20]: 12 mg/kg

SMILES: CCC(=O)OCC1C=C(C)C=CC(=O)C(C)CC(CC=O)C(OC2OC(C)C(OC3CC(C)(O)C(OC(=O)CC)C(C)O3)C(N(C)C)C2OC(C)=O)C(C)C(O)CC(=O)OC1CC (stereo not shown) [Compound 3, 2'-O-Acetyl-23,4"-Di-O-Propionyl-DMT]
- MIC (minimal inhibitory concentration) [1]: 1
- MIC (minimal inhibitory concentration) [2]: 0.5
- MIC (minimal inhibitory concentration) [3]: 1
- MIC (minimal inhibitory concentration) [4]: 0.5
- MIC (minimal inhibitory concentration) [5]: 0.5
- MIC (minimal inhibitory concentration) [6]: 0.125
- MIC (minimal inhibitory concentration) [7]: 1
- MIC (minimal inhibitory concentration) [8]: 0.25
- MIC (minimal inhibitory concentration) [9]: 1
- MIC (minimal inhibitory concentration) [10]: 1
- MIC (minimal inhibitory concentration) [11]: 0.78
- MIC (minimal inhibitory concentration) [12]: 0.78
- MIC (minimal inhibitory concentration) [13]: 12.5
- MIC (minimal inhibitory concentration) [14]: 0.097
- MIC (minimal inhibitory concentration) [15]: 0.78
- MIC (minimal inhibitory concentration) [16]: 12.5
- MIC (minimal inhibitory concentration) [17]: 0.39

SMILES: CCC(=O)OCC1C=C(C)C=CC(=O)C(C)CC(CC=O)C(OC2OC(C)C(OC3CC(C)(O)C(OC(=O)CC)C(C)O3)C(N(C)C)C2OC(C)=O)C(C)C(OC(=O)CC)CC(=O)OC1CC (stereo not shown) [Compound 9, 2'-O-Acetyl-3,23,4"-Tri-O-Propionyl-DMT]
- MIC (minimal inhibitory concentration) [1]: 1
- MIC (minimal inhibitory concentration) [2]: 1
- MIC (minimal inhibitory concentration) [3]: 1
- MIC (minimal inhibitory concentration) [4]: 1
- MIC (minimal inhibitory concentration) [5]: 1
- MIC (minimal inhibitory concentration) [6]: 0.25
- MIC (minimal inhibitory concentration) [7]: 2
- MIC (minimal inhibitory concentration) [8]: 0.5
- MIC (minimal inhibitory concentration) [9]: 1
- MIC (minimal inhibitory concentration) [10]: 1
- MIC (minimal inhibitory concentration) [11]: 1.56
- MIC (minimal inhibitory concentration) [12]: 1.56
- MIC (minimal inhibitory concentration) [13]: > 50
- MIC (minimal inhibitory concentration) [14]: 0.78
- MIC (minimal inhibitory concentration) [15]: 0.78
- MIC (minimal inhibitory concentration) [16]: > 50
- MIC (minimal inhibitory concentration) [17]: 0.78

SMILES: CCC1OC(=O)CC(O)C(C)C(OC2OC(C)C(OC3CC(C)(O)C(OC(=O)Cc4ccccc4)C(C)O3)C(N(C)C)C2OC(C)=O)C(CC=O)CC(C)C(=O)C=CC(C)=CC1C (stereo not shown) [Compound 20, 2'-O-Acetyl-4"-O-Phenylacetyl-DMOT]
- MIC (minimal inhibitory concentration) [1]: > 128
- MIC (minimal inhibitory concentration) [2]: > 128
- MIC (minimal inhibitory concentration) [3]: > 128
- MIC (minimal inhibitory concentration) [4]: > 128
- MIC (minimal inhibitory concentration) [5]: > 128
- MIC (minimal inhibitory concentration) [6]: 32
- MIC (minimal inhibitory concentration) [7]: > 128
- MIC (minimal inhibitory concentration) [8]: 128
- MIC (minimal inhibitory concentration) [9]: > 128
- MIC (minimal inhibitory concentration) [10]: > 128
- MIC (minimal inhibitory concentration) [11]: 25
- MIC (minimal inhibitory concentration) [12]: 50
- MIC (minimal inhibitory concentration) [13]: 50
- MIC (minimal inhibitory concentration) [14]: 6.25
- MIC (minimal inhibitory concentration) [15]: 50
- MIC (minimal inhibitory concentration) [16]: 50
- MIC (minimal inhibitory concentration) [17]: 50

SMILES: CCC1OC(=O)CC(O)C(C)C(OC2OC(C)C(OC3CC(C)(O)C(OC(=O)COc4ccccc4)C(C)O3)C(N(C)C)C2OC(C)=O)C(CC=O)CC(C)C(=O)C=CC(C)=CC1COC(=O)COc1ccccc1 (stereo not shown) [Compound 7, 2'-O-Acetyl-4",23-Di-O-Phenoxyacetyl-DMT]
- MIC (minimal inhibitory concentration) [1]: 16
- MIC (minimal inhibitory concentration) [2]: 32
- MIC (minimal inhibitory concentration) [3]: 32
- MIC (minimal inhibitory concentration) [4]: 32
- MIC (minimal inhibitory concentration) [5]: 32
- MIC (minimal inhibitory concentration) [6]: 1
- MIC (minimal inhibitory concentration) [7]: 128
- MIC (minimal inhibitory concentration) [8]: 8
- MIC (minimal inhibitory concentration) [9]: 64
- MIC (minimal inhibitory concentration) [10]: 64
- MIC (minimal inhibitory concentration) [11]: 12.5
- MIC (minimal inhibitory concentration) [12]: 0.78
- MIC (minimal inhibitory concentration) [13]: > 50
- MIC (minimal inhibitory concentration) [14]: 0.78
- MIC (minimal inhibitory concentration) [16]: > 50
- MIC (minimal inhibitory concentration) [17]: 0.78

SMILES: CCC1OC(=O)CC(O)C(C)C(OC2OC(C)C(OC3CC(C)(O)C(OC(=O)Cc4ccccc4)C(C)O3)C(N(C)C)C2O)C(CC=O)CC(C)C(=O)C=CC(C)=CC1C (stereo not shown) [Compound 21, 4"-O-Phenylacetyl-DMOT]
- MIC (minimal inhibitory concentration) [1]: 16
- MIC (minimal inhibitory concentration) [2]: 8
- MIC (minimal inhibitory concentration) [3]: 8
- MIC (minimal inhibitory concentration) [4]: 8
- MIC (minimal inhibitory concentration) [5]: 8
- MIC (minimal inhibitory concentration) [6]: 0.5
- MIC (minimal inhibitory concentration) [7]: 16
- MIC (minimal inhibitory concentration) [8]: 4
- MIC (minimal inhibitory concentration) [9]: 16
- MIC (minimal inhibitory concentration) [10]: 16
- MIC (minimal inhibitory concentration) [11]: 12.5
- MIC (minimal inhibitory concentration) [12]: 6.25
- MIC (minimal inhibitory concentration) [13]: 50
- MIC (minimal inhibitory concentration) [14]: 0.78
- MIC (minimal inhibitory concentration) [15]: 6.25
- MIC (minimal inhibitory concentration) [16]: > 50
- MIC (minimal inhibitory concentration) [17]: 3.12
